# Activity calls are given as the source filed them. The rule behind the calls is not given here.
# Tests used:
# A549 [1] = experiment: Cytotoxicity against human A549 cells assessed as cell viability incubated for 48 hrs by MTT assay; type: functional, cell-based; settings: A549, 48 h
# [2] = Cytotoxicity against human BEAS-2B cells assessed as cell viability incubated for 48 hrs by MTT assay; type: toxicity, cell-based
# NCI-H460 [3] = experiment: Cytotoxicity against human NCI-H460 cells assessed as cell viability incubated for 48 hrs by MTT assay; type: functional, cell-based; settings: NCI-H460, 48 h
# NCI-H1299 = experiment: Cytotoxicity against human NCI-H1299 cells assessed as cell viability incubated for 48 hrs by MTT assay; type: functional, cell-based; settings: NCI-H1299, 48 h
# NCI-H460 [4] = experiment: Induction of ROS generation in human NCI-H460 cells by DCFH-DA probe based flow cytometry analysis; type: functional, cell-based
# A549 [5] = experiment: Induction of ROS generation in human A549 cells by DCFH-DA probe based flow cytometry analysis; type: functional, cell-based
# [6] = target: T1, Thioredoxin reductase 1, cytoplasmic (Homo sapiens, UniProt Q16881); experiment: Binding affinity to TrxR1 (unknown origin) assessed as dissociation constant by SPR analysis
# T1 sequence (Q16881 whole entry): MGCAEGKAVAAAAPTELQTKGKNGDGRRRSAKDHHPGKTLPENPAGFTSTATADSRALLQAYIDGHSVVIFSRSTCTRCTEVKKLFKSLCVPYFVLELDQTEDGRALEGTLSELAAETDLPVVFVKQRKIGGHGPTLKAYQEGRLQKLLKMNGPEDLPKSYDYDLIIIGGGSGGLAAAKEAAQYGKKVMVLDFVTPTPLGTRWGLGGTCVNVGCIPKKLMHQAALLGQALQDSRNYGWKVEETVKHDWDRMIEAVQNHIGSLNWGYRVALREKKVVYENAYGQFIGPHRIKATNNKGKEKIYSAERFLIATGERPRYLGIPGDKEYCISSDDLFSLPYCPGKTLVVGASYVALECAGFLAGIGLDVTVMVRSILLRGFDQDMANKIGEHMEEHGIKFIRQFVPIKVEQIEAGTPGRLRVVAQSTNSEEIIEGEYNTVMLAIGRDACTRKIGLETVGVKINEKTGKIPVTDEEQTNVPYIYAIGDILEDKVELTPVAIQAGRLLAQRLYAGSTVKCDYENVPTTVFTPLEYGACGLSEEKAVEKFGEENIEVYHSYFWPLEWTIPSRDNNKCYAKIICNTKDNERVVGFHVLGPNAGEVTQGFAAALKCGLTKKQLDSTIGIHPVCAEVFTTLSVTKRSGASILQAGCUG
SMILES,IC50 (A549 [1]) [µM],IC50 (NCI-H460 [3]) [µM],also measured
C/C1=C\[C@@H](OC(=O)C2CC2)[C@H]2[C@H](CC3=C[C@H](C1)OC3=O)OC(=O)[C@@H]2CSc1ccc(C(F)(F)F)cc1,3.86,> 25,IC50 at 48 h [2]: > 25 µM
CCCCCSC(=O)O[C@@H]1/C=C(\C)C[C@H]2C=C(C[C@@H]3OC(=O)[C@H](CSC(=S)N(C)C)[C@H]31)C(=O)O2,1.06,,IC50 (NCI-H1299): 2.64 µM
C/C1=C\[C@@H](OC(=O)C2CC2)[C@H]2[C@H](CC3=C[C@H](C1)OC3=O)OC(=O)[C@@H]2CSC(=S)N(C)C,0.57,7.75,IC50 (NCI-H1299): 2.18 µM
C/C1=C\[C@@H](OC(=O)OCc2cccnc2)[C@H]2[C@H](CC3=C[C@H](C1)OC3=O)OC(=O)[C@@H]2CSc1ccc(F)cc1,1.56,,IC50 (NCI-H1299): 11.5 µM
C/C1=C\[C@@H](OC(=O)NCc2ccc(F)cc2)[C@H]2[C@H](CC3=C[C@H](C1)OC3=O)OC(=O)[C@@H]2CSc1ccc(F)cc1,5.05,,IC50 (NCI-H1299): 5.37 µM
C/C1=C\[C@@H](OC(=O)OC2CC2)[C@H]2[C@H](CC3=C[C@H](C1)OC3=O)OC(=O)[C@@H]2CSc1ccc(F)cc1,3.91,,IC50 (NCI-H1299): 3.04 µM
C/C1=C\[C@@H](OC(=O)OCc2ccc(F)cc2)[C@H]2[C@H](CC3=C[C@H](C1)OC3=O)OC(=O)[C@@H]2CSC(=S)N(C)C,0.47,,IC50 (NCI-H1299): 2.93 µM
C/C1=C\[C@@H](OC(=O)/C=C/c2ccccc2)[C@H]2[C@H](CC3=C[C@H](C1)OC3=O)OC(=O)[C@@H]2CSCCOCCOCCSC[C@H]1C(=O)O[C@H]2CC3=C[C@H](C/C(C)=C/[C@@H](OC(=O)/C=C/c4ccccc4)[C@@H]21)OC3=O,> 25,> 25,
C/C1=C\[C@@H](OC(=O)/C=C/c2ccccc2)[C@H]2[C@H](CC3=C[C@H](C1)OC3=O)OC(=O)[C@@H]2CSCc1ccc(Cl)cc1,> 25,> 25,
C/C1=C\[C@@H](OC(=O)SCC(C)C)[C@H]2[C@H](CC3=C[C@H](C1)OC3=O)OC(=O)[C@@H]2CSc1ccc(F)cc1,2.57,,IC50 (NCI-H1299): 5.37 µM
C/C1=C\[C@@H](OC(=O)C2CC2)[C@H]2[C@H](CC3=C[C@H](C1)OC3=O)OC(=O)[C@@H]2CSc1ccc(F)cc1,4.41,> 25,IC50 at 48 h [2]: > 25 µM; Activity (NCI-H460 [4]): Active; Activity (A549 [5]): Active
C/C1=C\[C@@H](OC(=O)c2ccccc2)[C@H]2[C@H](CC3=C[C@H](C1)OC3=O)OC(=O)[C@@H]2CSc1ccc(Br)cc1,8.85,> 25,
C/C1=C\[C@@H](O)[C@H]2[C@H](CC3=C[C@H](C1)OC3=O)OC(=O)[C@@H]2CSCCOCCOCCSC[C@H]1C(=O)O[C@H]2CC3=C[C@H](C/C(C)=C/[C@@H](O)[C@@H]21)OC3=O,> 25,> 25,
C/C1=C\[C@@H](OC(=O)/C=C/c2ccccc2)[C@H]2[C@H](CC3=C[C@H](C1)OC3=O)OC(=O)[C@@H]2CSc1nc2ccccc2s1,> 25,> 25,
COc1ccc(SC[C@H]2C(=O)O[C@H]3CC4=C[C@H](C/C(C)=C/[C@@H](OC(=O)/C=C/c5ccccc5)[C@@H]32)OC4=O)cc1,14,> 25,
C/C1=C\[C@@H](O)[C@H]2[C@H](CC3=C[C@H](C1)OC3=O)OC(=O)[C@@H]2CSc1cccc(Br)c1,> 25,> 25,
C/C1=C\[C@@H](O)[C@H]2[C@H](CC3=C[C@H](C1)OC3=O)OC(=O)[C@@H]2CSCC(C)C,> 25,> 25,
CCCCCSC[C@H]1C(=O)O[C@H]2CC3=C[C@H](C/C(C)=C/[C@@H](OC(=O)c4ccccc4)[C@@H]21)OC3=O,> 25,> 25,
C/C1=C\[C@@H](OC(=O)C2CC2)[C@H]2[C@H](CC3=C[C@H](C1)OC3=O)OC(=O)[C@@H]2CSc1ccc([N+](=O)[O-])cc1,5.12,> 25,
C/C1=C\[C@@H](OC(=O)/C=C/c2ccccc2)[C@H]2[C@H](CC3=C[C@H](C1)OC3=O)OC(=O)[C@@H]2CSc1ccc(F)cc1,11.3,> 25,

SMILES,IC50 (A549 [1]) [µM],IC50 (NCI-H460 [3]) [µM],also measured
C/C1=C\[C@@H](O)[C@H]2[C@H](CC3=C[C@H](C1)OC3=O)OC(=O)[C@@H]2CSc1ccc(SC[C@H]2C(=O)O[C@H]3CC4=C[C@H](C/C(C)=C/[C@@H](O)[C@@H]32)OC4=O)cc1,> 25,> 25,
C/C1=C\[C@@H](OC(=O)C2CC2)[C@H]2[C@H](CC3=C[C@H](C1)OC3=O)OC(=O)[C@@H]2CSC(=S)N1CCOCC1,0.83,> 25,
C/C1=C\[C@@H](OC(=O)C2CC2)[C@H]2[C@H](CC3=C[C@H](C1)OC3=O)OC(=O)[C@@H]2CSc1cccc(Br)c1,5.77,> 25,
C/C1=C\[C@@H](OC(=O)C2CC2)[C@H]2[C@H](CC3=C[C@H](C1)OC3=O)OC(=O)[C@@H]2CSc1ccc(Br)cc1,4.6,> 25,IC50 at 48 h [2]: > 25 µM
C/C1=C\[C@@H](OC(=O)C2CC2)[C@H]2[C@H](CC3=C[C@H](C1)OC3=O)OC(=O)[C@@H]2CSC(=S)NCc1cccnc1,1.41,15.3,
C/C1=C\[C@@H](OC(=O)C2CC2)[C@H]2[C@H](CC3=C[C@H](C1)OC3=O)OC(=O)[C@@H]2CSC(=S)NC1CCCC1,2.63,> 25,
C/C1=C\[C@@H](OC(=O)/C=C/c2ccccc2)[C@H]2[C@H](CC3=C[C@H](C1)OC3=O)OC(=O)[C@@H]2CSc1ccc(SC[C@H]2C(=O)O[C@H]3CC4=C[C@H](C/C(C)=C/[C@@H](OC(=O)/C=C/c5ccccc5)[C@@H]32)OC4=O)cc1,> 25,> 25,
CCCCCSC[C@H]1C(=O)O[C@H]2CC3=C[C@H](C/C(C)=C/[C@@H](OC(=O)C4CC4)[C@@H]21)OC3=O,> 25,> 25,
C/C1=C\[C@@H](O)[C@H]2[C@H](CC3=C[C@H](C1)OC3=O)OC(=O)[C@@H]2CSC1CCCCC1,> 25,> 25,
COc1ccc(SC[C@H]2C(=O)O[C@H]3CC4=C[C@H](C/C(C)=C/[C@@H](OC(=O)C5CC5)[C@@H]32)OC4=O)cc1,6.81,> 25,
C/C1=C\[C@@H](O)[C@H]2[C@H](CC3=C[C@H](C1)OC3=O)OC(=O)[C@@H]2CSc1ccc(F)cc1,> 25,> 25,
C/C1=C\[C@@H](OC(=O)C2CC2)[C@H]2[C@H](CC3=C[C@H](C1)OC3=O)OC(=O)[C@@H]2CSCCOCCOCCSC[C@H]1C(=O)O[C@H]2CC3=C[C@H](C/C(C)=C/[C@@H](OC(=O)C4CC4)[C@@H]21)OC3=O,13.2,> 25,
CCCCCSC[C@H]1C(=O)O[C@H]2CC3=C[C@H](C/C(C)=C/[C@@H](OC(=O)/C=C/c4ccccc4)[C@@H]21)OC3=O,> 25,> 25,
C/C1=C\[C@@H](OC(=O)/C=C/c2ccccc2)[C@H]2[C@H](CC3=C[C@H](C1)OC3=O)OC(=O)[C@@H]2CSc1cccc(F)c1,15.6,> 25,
CCCNC(=S)SC[C@H]1C(=O)O[C@H]2CC3=C[C@H](C/C(C)=C/[C@@H](OC(=O)C4CC4)[C@@H]21)OC3=O,2.85,24.9,
C=C1C(=O)O[C@H]2CC3=C[C@H](C/C(C)=C/[C@@H](O)[C@H]12)OC3=O,,,Kd [6]: 42.7 µM
C/C1=C\[C@@H](OC(=O)c2ccccc2)[C@H]2[C@H](CC3=C[C@H](C1)OC3=O)OC(=O)[C@@H]2CSc1ccc(Cl)cc1,4.14,20.6,
C/C1=C\[C@@H](OC(=O)c2ccccc2)[C@H]2[C@H](CC3=C[C@H](C1)OC3=O)OC(=O)[C@@H]2CSC1CCCCC1,> 25,> 25,
C/C1=C\[C@@H](OC(=O)c2ccccc2)[C@H]2[C@H](CC3=C[C@H](C1)OC3=O)OC(=O)[C@@H]2CSCCOCCOCCSC[C@H]1C(=O)O[C@H]2CC3=C[C@H](C/C(C)=C/[C@@H](OC(=O)c4ccccc4)[C@@H]21)OC3=O,> 25,> 25,
C/C1=C\[C@@H](OC(=O)/C=C/c2ccccc2)[C@H]2[C@H](CC3=C[C@H](C1)OC3=O)OC(=O)[C@@H]2CSc1ccc(Br)cc1,11.8,> 25,
